# Target: SARS-CoV-2 PL^pro (Severe acute respiratory syndrome coronavirus 2, UniProt P0DTD1)
# Test: PL^pro enzymatic inhibition assay (FRET-based, Z-RLRGG-AMC substrate)
# Format: biochemical
# Conditions: not given
Structure (SMILES),Fold improvement of PL^pro interaction in styryl ketone series,Fold improvement of PL^pro affinity over compound 12 [fold],Fold higher PL^pro affinity than compound 25b [fold]
Cc1nc(N(CCC(=O)O)c2cccc3ccccc23)sc1C(=O)/C=C/c1ccc(F)cc1 [Compound 21c],two times,,
Cc1ccc(N(CCC(=O)O)c2nc(CNc3ccccc3)cs2)cc1 [Compound 26],,2,
Cc1nc(N(CCC(=O)O)c2cccc3ccccc23)sc1C(=O)/C=C/c1ccc(Cl)cc1 [Compound 21b],4,,2

# Same assay, conditions: Table 1 thiazole series; enzymatic inhibition assay, 25 °C, pH 7.5; uncertainty approx. 1.8-fold of Kd
row,Structure (SMILES),Kd [µM]
1,N#Cc1ccc(-c2csc(N(CCC(=O)O)c3ccc(N)cc3)n2)cc1 [Compound 30c],32
2,CC(=O)c1sc(N(CCC(=O)O)c2cccc3ccccc23)nc1C [Compound 19],≥ 50
3,Cc1ccc(N(CCC(=O)O)c2nc(-c3ccc(F)cc3)c(/C=N\Nc3ccccc3)s2)cc1 [Compound 27b],≥ 50
4,Cc1nc(N(CCC(=O)O)c2cccc3ccccc23)sc1C(=O)/C=C/c1ccc(F)cc1 [Compound 21c],52
5,O=C(O)CCN(c1nc(CNc2ccccc2)cs1)c1cccc2ccccc12 [Compound 12],29
6,O=C(O)CCN(c1nc(-c2ccc(Cl)cc2)cs1)c1cccc2ccccc12 [Compound 6b],≥ 50
7,O=C(O)CCN(c1nc(-c2ccc(F)cc2)cs1)c1cccc2ccccc12 [Compound 6c],≥ 50
8,O=C(O)CCN(C1=NC(=O)/C(=C/c2ccc(F)cc2)S1)c1cccc2ccccc12 [Compound 13c],8.6
9,Nc1ccc(N(CCC(=O)O)c2nc(-c3ccc(F)cc3)cs2)cc1 [Compound 30b],≥ 50
10,Nc1ccc(N(CCC(=O)O)c2nc(-c3ccc(C(F)(F)F)cc3)cs2)cc1 [Compound 30d],≥ 50
11,O=C(O)CCN(c1nc(-c2ccc([N+](=O)[O-])cc2)cs1)c1cccc2ccccc12 [Compound 6d],25
12,Cc1ccc(N(CCC(=O)O)c2nc(C)c(C(=O)C=Cc3ccc(Cl)cc3)s2)cc1 [Compound 25b],66
13,Cc1nc(N(CCC(=O)O)c2cccc3ccccc23)sc1C(=O)O [Compound 18],≥ 50
14,CCOC(=O)c1sc(N(CCC(=O)O)c2cccc3ccccc23)nc1C [Compound 20],29
15,C/C(=N/N=C(/C)c1sc(N(CCC(=O)O)c2cccc3ccccc23)nc1C)c1sc(N(CCC(=O)O)c2cccc3ccccc23)nc1C [Compound 24],8
16,CCOC(=O)Cc1csc(N(CCC(=O)O)c2cccc3ccccc23)n1 [Compound 11],> 200
17,O=C(O)CCN(C1=NC(=O)C(=Cc2ccc(O)cc2O)S1)c1cccc2ccccc12 [Compound 14],9.2
18,Nc1ccc(N(CCC(=O)O)c2nc(-c3ccc(Cl)cc3)cs2)cc1 [Compound 30a],≥ 50
19,"O=C(O)CCN(c1nccs1)c1cccc2ccccc12 [Compound 3, 3-[naphthalene-1-yl(1,3-thiazol-2-yl)amino]propanoic acid]",14
20,O=C(O)CCN(c1nc(CO)cs1)c1cccc2ccccc12 [Compound 10],35
21,O=C(O)CCN(C1=NC(=O)C(=Cc2cccs2)S1)c1cccc2ccccc12 [Compound 16],≥ 50
22,Cc1ccc(N(CCC(=O)O)c2nc(-c3ccc(Cl)cc3)c(/C=N\Nc3ccccc3)s2)cc1 [Compound 27a],35
23,O=C(O)CCN(c1nc(CCl)cs1)c1cccc2ccccc12 [Compound 9],≥ 50
24,Cc1ccc(N(CCC(=O)O)c2nc(C)c(C(=O)C=Cc3ccccc3)s2)cc1 [Compound 25a],83
25,Cc1ccc(N(CCC(=O)O)c2nc(C)c(C(=O)C=Cc3ccc(F)cc3)s2)cc1 [Compound 25c],58
26,Cc1ccc(N(CCC(=O)O)c2nc(CNc3ccccc3)cs2)cc1 [Compound 26],16
27,Cc1nc(N(CCC(=O)O)c2cccc3ccccc23)sc1C(=O)/C=C/c1ccc(Cl)cc1 [Compound 21b],29

# Target: SARS-CoV-2 M^pro (Severe acute respiratory syndrome coronavirus 2, UniProt P0DTD1)
# Test: biochemical
# Format: biochemical
# Conditions: not given
row,Structure (SMILES),Kd [µM]
1,N#Cc1ccc(-c2csc(N(CCC(=O)O)c3ccc(N)cc3)n2)cc1 [Compound 30c],> 200
2,CC(=O)c1sc(N(CCC(=O)O)c2cccc3ccccc23)nc1C [Compound 19],> 200
3,Cc1ccc(N(CCC(=O)O)c2nc(-c3ccc(F)cc3)c(/C=N\Nc3ccccc3)s2)cc1 [Compound 27b],> 200
4,Cc1nc(N(CCC(=O)O)c2cccc3ccccc23)sc1C(=O)/C=C/c1ccc(F)cc1 [Compound 21c],> 200
5,O=C(O)CCN(c1nc(CNc2ccccc2)cs1)c1cccc2ccccc12 [Compound 12],> 200
6,O=C(O)CCN(c1nc(-c2ccc(Cl)cc2)cs1)c1cccc2ccccc12 [Compound 6b],> 200
7,O=C(O)CCN(c1nc(-c2ccc(F)cc2)cs1)c1cccc2ccccc12 [Compound 6c],> 200
8,O=C(O)CCN(C1=NC(=O)/C(=C/c2ccc(F)cc2)S1)c1cccc2ccccc12 [Compound 13c],8.6
9,Nc1ccc(N(CCC(=O)O)c2nc(-c3ccc(F)cc3)cs2)cc1 [Compound 30b],> 200
10,Nc1ccc(N(CCC(=O)O)c2nc(-c3ccc(C(F)(F)F)cc3)cs2)cc1 [Compound 30d],> 200
11,O=C(O)CCN(c1nc(-c2ccc([N+](=O)[O-])cc2)cs1)c1cccc2ccccc12 [Compound 6d],26
12,Cc1ccc(N(CCC(=O)O)c2nc(C)c(C(=O)C=Cc3ccc(Cl)cc3)s2)cc1 [Compound 25b],> 200
13,Cc1nc(N(CCC(=O)O)c2cccc3ccccc23)sc1C(=O)O [Compound 18],> 200
14,CCOC(=O)c1sc(N(CCC(=O)O)c2cccc3ccccc23)nc1C [Compound 20],> 200
15,C/C(=N/N=C(/C)c1sc(N(CCC(=O)O)c2cccc3ccccc23)nc1C)c1sc(N(CCC(=O)O)c2cccc3ccccc23)nc1C [Compound 24],> 200
16,CCOC(=O)Cc1csc(N(CCC(=O)O)c2cccc3ccccc23)n1 [Compound 11],> 200
17,O=C(O)CCN(C1=NC(=O)C(=Cc2ccc(O)cc2O)S1)c1cccc2ccccc12 [Compound 14],> 200
18,Nc1ccc(N(CCC(=O)O)c2nc(-c3ccc(Cl)cc3)cs2)cc1 [Compound 30a],> 200
19,"O=C(O)CCN(c1nccs1)c1cccc2ccccc12 [Compound 3, 3-[naphthalene-1-yl(1,3-thiazol-2-yl)amino]propanoic acid]",25
20,O=C(O)CCN(c1nc(CO)cs1)c1cccc2ccccc12 [Compound 10],> 200
21,O=C(O)CCN(C1=NC(=O)C(=Cc2cccs2)S1)c1cccc2ccccc12 [Compound 16],> 200
22,Cc1ccc(N(CCC(=O)O)c2nc(-c3ccc(Cl)cc3)c(/C=N\Nc3ccccc3)s2)cc1 [Compound 27a],> 200
23,O=C(O)CCN(c1nc(CCl)cs1)c1cccc2ccccc12 [Compound 9],> 200
24,Cc1ccc(N(CCC(=O)O)c2nc(C)c(C(=O)C=Cc3ccccc3)s2)cc1 [Compound 25a],> 200
25,Cc1ccc(N(CCC(=O)O)c2nc(C)c(C(=O)C=Cc3ccc(F)cc3)s2)cc1 [Compound 25c],> 200
26,Cc1ccc(N(CCC(=O)O)c2nc(CNc3ccccc3)cs2)cc1 [Compound 26],> 200
27,Cc1nc(N(CCC(=O)O)c2cccc3ccccc23)sc1C(=O)/C=C/c1ccc(Cl)cc1 [Compound 21b],17

# Test system: not given
# Test: not given
# Conditions: not given
row,Structure (SMILES),melting point [°C]
1,O=C(O)CCN(C1=NC(=O)C(=Cc2ccc(O)cc2O)S1)c1cccc2ccccc12 [Compound 14],205 to 206

# From article PMC10488051, “Screening, Synthesis and Biochemical Characterization of SARS-CoV-2 Protease Inhibitors” (International Journal of Molecular Sciences, 2023)
